What was measured:
[1] = tested on: murine P388 leukemia cell; assay: Antitumor effect on murine P388 leukemia cell; format: in vivo, murine; male CDF1 mice; conditions: for ILSmax (maximum percent increase in life-span) / ILS50 (dose which shows 50% of the ILS value by 5 administrations) / dose corresponding to ILSmax: P388, i.p. once a day for 5 days; for ILSmax (maximum percent increase in life-span): 30 days observation; for ILS50 (dose which shows 50% of the ILS value by 5 administrations): linear regression; for TI (therapeutic index, LD50 value/ILS50 value): P388
Experimental: (§1) Murine L1210 leukemia cells (1×10^5 cells) were inoculated peritoneally into six-week-old male CDF1 mice on day 0. From the next day after the inoculation, a drug (the compound of the invention or a compound for comparison) was administered peritoneally once a day for 5 days. After 30 days of observation, the percent increase in life-span (ILS) was calculated as follows: […]
(§2) T: mean survival days of the drug-treated group
(§3) C: mean survival days of control group
(§4) In these tables, ILSmax means maximum ILS value (%), and corresponding dose (mg/kg) is Shown in parenthesis.
Antitumor effect on murine P388 leukemia cell:
The test of Test Example 1 was repeated except that 1×10^6 of murine P388 leukemia cells were used instead of 1×10^5 of murine L1210 leukemia cells.

[2] = 50% lethal dose by single peritoneal administration, obtained at the time of the dose setting; format: in vivo, CDF1 mice
Source text: as §4

[3] = tested on: murine L1210 leukemia cell; assay: Antitumor effect on murine L1210 leukemia cell (increase in life-span of inoculated mice); format: in vivo, murine; male CDF1 mice; conditions: for ILSmax (maximum percent increase in life-span) / ILS50 (dose which shows 50% of the ILS value by 5 administrations) / dose corresponding to ILSmax: L1210, i.p. once a day for 5 days; for ILSmax (maximum percent increase in life-span): 30 days observation; for ILS50 (dose which shows 50% of the ILS value by 5 administrations): linear regression; for TI (therapeutic index, LD50 value/ILS50 value): L1210
Experimental: as §1, §2, §3, §4

[4] = tested on: cisplatin-resistant murine L1210 leukemia cell (L1210/DDP); assay: Antitumor effect on cisplatin-resistant murine L1210 leukemia cell (L1210/DDP); format: in vivo, murine; male CDF1 mice; conditions: for ILSmax (maximum percent increase in life-span) / dose corresponding to ILSmax / ILS50 (dose which shows 50% of the ILS value by 5 administrations): i.p. once a day for 5 days; for ILSmax (maximum percent increase in life-span): 30 days observation; for ILS50 (dose which shows 50% of the ILS value by 5 administrations): linear regression
Experimental: as §1, §2, §3
In these tables, ILSmax means maximum ILS value (%), and corresponding dose (mg/kg) is Shown in parenthesis. In this test, cisplatin and carboplatin were respectively tested in each test lot for accurate comparison.
Antitumor effect on cisplatin-resistant murine L1210 leukemia cell (L1210/DDP):
The test of Test Example 1 was repeated except that cisplatin-resistant murine L1210 leukemia cell (L1210/DDP) was used instead of murine L1210 leukemia cell.

Row | Structure (SMILES) | ILSmax (maximum percent increase in life-span) ([1]; Table 10 test lot) | ILS50 (dose which shows 50% of the ILS value by 5 administrations) ([1]; Table 10 test lot) | dose corresponding to ILSmax ([1]; Table 10 test lot) | LD50 (50% lethal dose) [2] | ILSmax (maximum percent increase in life-span) ([3]; Table 5 test lot) | ILS50 (dose which shows 50% of the ILS value by 5 administrations) ([3]; Table 5 test lot) | dose corresponding to ILSmax ([3]; Table 5 test lot) | ILSmax (maximum percent increase in life-span) ([4]; Table 7 test lot) | dose corresponding to ILSmax ([4]; Table 7 test lot) | ILSmax (maximum percent increase in life-span) ([1]; Table 8 test lot) | ILSmax (maximum percent increase in life-span) ([1]; Table 9 test lot) | ILS50 (dose which shows 50% of the ILS value by 5 administrations) ([1]; Table 8 test lot) | ILS50 (dose which shows 50% of the ILS value by 5 administrations) ([1]; Table 9 test lot) | dose corresponding to ILSmax ([1]; Table 8 test lot) | dose corresponding to ILSmax ([1]; Table 9 test lot) | TI (therapeutic index, LD50 value/ILS50 value) ([3]; Table 5 test lot) | TI (therapeutic index, LD50 value/ILS50 value) ([4]; Table 7 test lot) | ILS50 (dose which shows 50% of the ILS value by 5 administrations) ([4]; Table 7 test lot) | other results
1 | CC(C)(C)O[NH][Pt]1([NH2])[O]C(=O)C2(CCC2)C(=O)[O]1 [Compound No. 17, (1,1-cyclobutane dicarboxylate)ammine (O-tert-butylhydroxylamine)platinum(II)] | 72.7% | 12.4 mg/kg | 32.0 mg/kg | 250.0 mg/kg | – | – | – | – | – | – | – | – | – | – | – | – | – | – | TI (therapeutic index, LD50 value/ILS50 value) ([1]; Table 10 test lot): 20.2
2 | CCON.N.O=C1[O][Pt][O]C(=O)C12CCC2 [Compound No. 15, (1,1-cyclobutane dicarboxylate)ammine (O-ethylhydroxylamine)platinum(II)] | 93.6% | 8.2 mg/kg | 32.0 mg/kg | 176.8 mg/kg | – | – | – | – | – | – | – | – | – | – | – | – | – | – | TI (therapeutic index, LD50 value/ILS50 value) ([1]; Table 10 test lot): 21.6
3 | CCCO[NH][Pt]1([NH2])[O]C(=O)C2(CCC2)C(=O)[O]1 [Compound No. 16, (1,1-cyclobutane dicarboxylate)ammine (O-propylhydroxylamine)platinum(II)] | 72.7% | 8.2 mg/kg | 8.0 mg/kg | 176.8 mg/kg | – | – | – | – | – | – | – | – | – | – | – | – | – | – | TI (therapeutic index, LD50 value/ILS50 value) ([1]; Table 10 test lot): 21.6
4 | N.N.[Cl][Pt][Cl] [Cisplatin, cisplatin, reference compound] | > 120.9% | < 0.5 mg/kg | 4.0 mg/kg | – | 90.0% | 1.1 mg/kg | 4.0 mg/kg | 5.1% | 4.0 mg/kg | > 120.4% | > 156.7% | < 0.5 mg/kg | < 0.5 mg/kg | 4.0 mg/kg | 4.0 mg/kg | – | – | – | ILSmax (maximum percent increase in life-span) ([3]; Table 4 test lot): 88.2%; ILS50 (dose which shows 50% of the ILS value by 5 administrations) ([3]; Table 4 test lot): 1.3 mg/kg; dose corresponding to ILSmax ([3]; Table 4 test lot): 4.0 mg/kg; ILSmax (maximum percent increase in life-span) ([4]; Table 6 test lot): 0.9%; dose corresponding to ILSmax ([4]; Table 6 test lot): 4.0 mg/kg
5 | CNO.N.[Cl][Pt][Cl] [Compound No. 1, cis-dichloroammine (N-methylhydroxylamine)platinum(II)] | – | – | – | 15.6 mg/kg | – | – | – | – | – | > 136.1% | – | < 0.5 mg/kg | – | 4.0 mg/kg | – | – | – | – | TI (therapeutic index, LD50 value/ILS50 value) ([1]; Table 8 test lot): > 31.2
6 | CCCO[NH][Pt]([NH2])([Cl])[Cl] [Compound No. 8, cis-dichloroammine (O-propylhydroxylamine)platinum(II)] | – | – | – | 11.0 mg/kg | > 131.3% | 0.8 mg/kg | 4.0 mg/kg | > 175.5% | 1.0 mg/kg | – | 101.9% | – | < 0.5 mg/kg | – | 2.0 mg/kg | 13.8 | > 22.0 | < 0.5 mg/kg | TI (therapeutic index, LD50 value/ILS50 value) ([1]; Table 9 test lot): > 22.0
7 | N.ONC1CCCCC1.[Cl][Pt][Cl] [Compound No. 4, cis-dichloroammine (N-cyclohexylhydroxylamine)platinum(II)] | – | – | – | 88.2 mg/kg | – | – | – | – | – | 108.3% | – | 1.1 mg/kg | – | 16.0 mg/kg | – | – | – | – | ILSmax (maximum percent increase in life-span) ([3]; Table 4 test lot): > 120.0%; ILS50 (dose which shows 50% of the ILS value by 5 administrations) ([3]; Table 4 test lot): 2.1 mg/kg; dose corresponding to ILSmax ([3]; Table 4 test lot): 8.0 mg/kg; TI (therapeutic index, LD50 value/ILS50 value) ([3]; Table 4 test lot): 42.0; TI (therapeutic index, LD50 value/ILS50 value) ([4]; Table 6 test lot): > 88.2; ILSmax (maximum percent increase in life-span) ([4]; Table 6 test lot): > 183.0%; dose corresponding to ILSmax ([4]; Table 6 test lot): 2.0 mg/kg; ILS50 (dose which shows 50% of the ILS value by 5 administrations) ([4]; Table 6 test lot): < 1.0 mg/kg; TI (therapeutic index, LD50 value/ILS50 value) ([1]; Table 8 test lot): 80.2
8 | N.NOC1CCCCC1.[Cl][Pt][Cl] [Compound No. 9, cis-dichloroammine (O-cyclohexylhydroxylamine)platinum(II)] | – | – | – | 22.1 mg/kg | 108.8% | 1.3 mg/kg | 4.0 mg/kg | > 206.1% | 1.0 mg/kg | – | 114.4% | – | < 1.0 mg/kg | – | 4.0 mg/kg | 17.0 | > 22.1 | < 1.0 mg/kg | TI (therapeutic index, LD50 value/ILS50 value) ([1]; Table 9 test lot): > 22.1
9 | CC(C)(C)ON.N.[Cl][Pt][Cl] [Compound No. 7, cis-dichloroammine (O-tert-butylhydroxylamine)platinum(II)] | – | – | – | 22.1 mg/kg | > 181.3% | 1.5 mg/kg | 8.0 mg/kg | > 206.1% | 1.0 mg/kg | – | 92.3% | – | < 1.0 mg/kg | – | 2.0 mg/kg | 14.7 | > 22.1 | < 1.0 mg/kg | TI (therapeutic index, LD50 value/ILS50 value) ([1]; Table 9 test lot): > 22.1
10 | CON.N.[Cl][Pt][Cl] [Compound No. 2, cis-dichloroammine (O-methylhydroxylamine)platinum(II)] | – | – | – | 22.1 mg/kg | – | – | – | – | – | 126.9% | – | < 0.5 mg/kg | – | 4.0 mg/kg | – | – | – | – | TI (therapeutic index, LD50 value/ILS50 value) ([1]; Table 8 test lot): > 44.2
11 | CCO[NH][Pt]([Cl])([Cl])[NH]C(C)C [Compound No. 12, cis-dichloro(isopropylamine) (O-ethylhydroxylamine)platinum(II)] | – | – | – | 22.1 mg/kg | 102.5% | 1.5 mg/kg | 8.0 mg/kg | > 206.1% | 2.0 mg/kg | – | – | – | – | – | – | 14.7 | > 22.1 | < 1.0 mg/kg | –

From patent publication US5498780A, “Platinum complex and malignant tumor treating drug containing the same” (SS Pharmaceutical Co., Ltd., priority 1994, dated 1996)
